# Assay results reported in PubChem BioAssay AID328 (DTP/NCI, 2004).
# Toxic doses and inconclusive results are not listed.
# Tested on: BDF1 mice, P388 leukemia ip, median survival T/C
# Experiment: NCI In Vivo Anticancer Drug Screen. Data for tumor model P388 Leukemia (intraperitoneal) in B6D2F1 (BDF1) mice
# Details: endpoint: median survival time, higher = longer survival
# How it was run: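 Survival ratio, drug arm over vehicle arm, in mice with a transplanted tumour.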
# [1] = dose: 100.0 mg/kg/injection, schedule: Q04DX003 (ip), vehicle: saline with Tween-80
# [2] = dose: 100.0 mg/kg/injection, schedule: Q04DX003 (ip), vehicle: saline
# [3] = dose: 200.0 mg/kg/injection, schedule: Q04DX003 (ip), vehicle: saline
# [4] = dose: 400.0 mg/kg/injection, schedule: Q04DX003 (ip), vehicle: saline
# [5] = dose: 25.0 mg/kg/injection, schedule: Q01DX009 (ip), vehicle: saline with Tween-80
# [6] = dose: 6.25 mg/kg/injection, schedule: Q01DX009 (ip), vehicle: saline with Tween-80
smiles,measurement,setting,value
COc1cc2cc(c1Cl)NC(=O)CC(OC(=O)C(C)N(C)C(C)=O)C1(C)OC1C(C)C1CC(O)(NC(=O)O1)C(OC)C=C/C=C(\C)C2 (stereo unspecified),T/C,"dose: 0.1 micrograms/kg/injection, schedule: Q01DX009 (ip), vehicle: saline + alcohol",120 % of control
same,T/C,"dose: 0.2 micrograms/kg/injection, schedule: Q01DX009 (ip), vehicle: saline + alcohol",110 % of control
same,T/C,"dose: 0.4 micrograms/kg/injection, schedule: Q01DX009 (ip), vehicle: saline + alcohol",115 % of control
same,T/C,"dose: 0.8 micrograms/kg/injection, schedule: Q01DX009 (ip), vehicle: saline + alcohol",110 % of control
same,T/C,"dose: 6.2 micrograms/kg/injection, schedule: Q01DX009 (ip), vehicle: saline + alcohol",170 % of control
same,T/C,"dose: 12.5 micrograms/kg/injection, schedule: Q01DX009 (ip), vehicle: saline + alcohol",120 % of control
same,T/C,"dose: 25.0 micrograms/kg/injection, schedule: Q01DX009 (ip), vehicle: saline + alcohol",185 % of control
same,T/C,"dose: 50.0 micrograms/kg/injection, schedule: Q01DX009 (ip), vehicle: saline + alcohol",120 % of control
CCC(C#N)(c1ccccc1)c1ccccc1,T/C,"dose: 100.0 mg/kg/injection, schedule: Q01DX009 (ip), vehicle: Klucel (hydroxypropylcellulose) (HPC)",90 % of control
same,T/C,"dose: 100.0 mg/kg/injection, schedule: Q04DX003 (ip), vehicle: Klucel (hydroxypropylcellulose) (HPC)",95 % of control
same,T/C,"dose: 200.0 mg/kg/injection, schedule: Q04DX003 (ip), vehicle: Klucel (hydroxypropylcellulose) (HPC)",95 % of control
same,T/C,"dose: 400.0 mg/kg/injection, schedule: Q01DX009 (ip), vehicle: Klucel (hydroxypropylcellulose) (HPC)",100 % of control
same,T/C,"dose: 400.0 mg/kg/injection, schedule: Q04DX003 (ip), vehicle: Klucel (hydroxypropylcellulose) (HPC)",100 % of control
COc1cc(C=O)c(C=O)cc1OC,T/C,"dose: 6.25 mg/kg/injection, schedule: Q04DX003 (ip), vehicle: saline with Tween-80",110 % of control
same,T/C,"dose: 12.5 mg/kg/injection, schedule: Q04DX003 (ip), vehicle: saline with Tween-80",106 % of control
same,T/C,"dose: 25.0 mg/kg/injection, schedule: Q04DX003 (ip), vehicle: saline with Tween-80",106 % of control
same,T/C,[1],97 % of control
O=C(Cn1cc(F)c(=O)[nH]c1=O)N1CCC2(CC1)SSC1(CCN(C(=O)Cn3cc(F)c(=O)[nH]c3=O)CC1)S2,T/C,"dose: 100.0 mg/kg/injection, schedule: Q01DX009 (ip), vehicle: saline",90 % of control
same,T/C,[2],104 % of control
same,T/C,"dose: 200.0 mg/kg/injection, schedule: Q01DX009 (ip), vehicle: saline",95 % of control
same,T/C,[3],95 % of control
same,T/C,[4],104 % of control
Oc1ccc(I)c2cccnc12,T/C,"dose: 62.5 mg/kg/injection, schedule: Q01DX010 (ip), vehicle: carboxymethylcellulose (CMC)",90 % of control
same,T/C,"dose: 250.0 mg/kg/injection, schedule: Q01DX010 (ip), vehicle: carboxymethylcellulose (CMC)",100 % of control
same,T/C,"dose: 500.0 mg/kg/injection, schedule: Q01DX010 (ip), vehicle: carboxymethylcellulose (CMC)",110 % of control
COc1ccc2c(C#N)cc3c4ccccc4ncc3c2c1,T/C,"dose: 12.5 mg/kg/injection, schedule: Q01DX009 (ip), vehicle: distilled water + Tween-80",107 % of control
same,T/C,"dose: 25.0 mg/kg/injection, schedule: Q01DX009 (ip), vehicle: distilled water + Tween-80",113 % of control
same,T/C,"dose: 50.0 mg/kg/injection, schedule: Q01DX009 (ip), vehicle: distilled water + Tween-80",88 % of control
same,T/C,"dose: 100.0 mg/kg/injection, schedule: Q01DX009 (ip), vehicle: distilled water + Tween-80",88 % of control
COc1cccc2c1C(=O)c1c(O)c3c(c(O)c1C2=O)CC(O)(C(=O)CO)CC3OC1CC(N)C(O)C(C)O1 (stereo unspecified) (tested in a mixture with another compound),T/C,"dose: 1.56 mg/kg/injection, schedule: Q01DX009 (ip), vehicle: other",118 % of control
same,T/C,"dose: 3.13 mg/kg/injection, schedule: Q01DX009 (ip), vehicle: other",106 % of control
same,T/C,"dose: 6.25 mg/kg/injection, schedule: Q01DX009 (ip), vehicle: other",93 % of control
same,T/C,"dose: 12.5 mg/kg/injection, schedule: Q01DX009 (ip), vehicle: other",108 % of control
O=NO.O=N[O-].O=N[O-].[Co+3].[NH-]CC[N-]CCO.[NH-]CC[N-]CCO,T/C,"dose: 25.0 mg/kg/injection, schedule: Q01DX009 (ip), vehicle: water",104 % of control
same,T/C,"dose: 25.0 mg/kg/injection, schedule: Q04DX003 (ip), vehicle: water",100 % of control
same,T/C,"dose: 50.0 mg/kg/injection, schedule: Q01DX009 (ip), vehicle: water",98 % of control
same,T/C,"dose: 50.0 mg/kg/injection, schedule: Q04DX003 (ip), vehicle: water",109 % of control
same,T/C,"dose: 100.0 mg/kg/injection, schedule: Q04DX003 (ip), vehicle: water",104 % of control
CSc1nc(C)c(Br)c(Sc2nc(N)nc3nc[nH]c23)n1,T/C,"dose: 66.0 mg/kg/injection, schedule: Q04DX003 (ip), vehicle: saline with Tween-80",154 % of control
same,T/C,[1],150 % of control
same,T/C,"dose: 150.0 mg/kg/injection, schedule: Q04DX003 (ip), vehicle: saline with Tween-80",150 % of control
C/C(=N\N1CCCCCC1)c1ccccc1,T/C,"dose: 50.0 mg/kg/injection, schedule: Q04DX003 (sc), vehicle: olive oil, sesame oil, peanut oil",95 % of control
same,T/C,"dose: 100.0 mg/kg/injection, schedule: Q04DX003 (sc), vehicle: olive oil, sesame oil, peanut oil",95 % of control
same,T/C,"dose: 200.0 mg/kg/injection, schedule: Q04DX003 (sc), vehicle: olive oil, sesame oil, peanut oil",91 % of control
O=C(O)c1ccc(Oc2nc3ccccc3s2)cc1,T/C,[5],95 % of control
same,T/C,"dose: 50.0 mg/kg/injection, schedule: Q01DX009 (ip), vehicle: saline with Tween-80",95 % of control
same,T/C,"dose: 100.0 mg/kg/injection, schedule: Q01DX009 (ip), vehicle: saline with Tween-80",104 % of control
O=C1CCC(N2C(=O)c3ccccc3C2=O)C(=O)N1 (stereo unspecified),T/C,"dose: 100.0 mg/kg/injection, schedule: Q01DX010 (ip), vehicle: saline",96 % of control
same,T/C,"dose: 200.0 mg/kg/injection, schedule: Q01DX010 (ip), vehicle: saline",96 % of control
same,T/C,"dose: 400.0 mg/kg/injection, schedule: Q01DX010 (ip), vehicle: saline",92 % of control
same,T/C,"dose: 800.0 mg/kg/injection, schedule: Q01DX010 (ip), vehicle: saline",92 % of control
Cc1ccc(NC(=O)Nc2ccccc2F)cc1NC(=O)Nc1ccccc1F,T/C,[1],104 % of control
same,T/C,"dose: 200.0 mg/kg/injection, schedule: Q04DX003 (ip), vehicle: saline with Tween-80",109 % of control
same,T/C,"dose: 400.0 mg/kg/injection, schedule: Q04DX003 (ip), vehicle: saline with Tween-80",109 % of control
c1ccc(OCCC[P+](c2ccccc2)(c2ccccc2)c2ccccc2)cc1,T/C,"dose: 0.78 mg/kg/injection, schedule: Q01DX010 (ip), vehicle: saline",90 % of control
same,T/C,"dose: 1.56 mg/kg/injection, schedule: Q01DX010 (ip), vehicle: saline",100 % of control
same,T/C,"dose: 3.13 mg/kg/injection, schedule: Q01DX010 (ip), vehicle: saline",109 % of control
same,T/C,"dose: 6.25 mg/kg/injection, schedule: Q01DX010 (ip), vehicle: saline",118 % of control
same,T/C,"dose: 12.5 mg/kg/injection, schedule: Q01DX010 (ip), vehicle: carboxymethylcellulose (CMC)",100 % of control
ClC(CN1CCCCC1)C(Cl)c1ccccc1 (stereo unspecified),T/C,"dose: 50.0 mg/kg/injection, schedule: Q04DX003 (ip), vehicle: saline sonified",108 % of control
same,T/C,"dose: 100.0 mg/kg/injection, schedule: Q04DX003 (ip), vehicle: saline sonified",112 % of control
same,T/C,"dose: 200.0 mg/kg/injection, schedule: Q04DX003 (ip), vehicle: saline sonified",104 % of control
Cc1cc(C)c(CCl)cc1CCl,T/C,"dose: 3.0 mg/kg/injection, schedule: Q01DX009 (ip), vehicle: saline with Tween-80",104 % of control
same,T/C,"dose: 4.5 mg/kg/injection, schedule: Q01DX009 (ip), vehicle: saline with Tween-80",116 % of control
same,T/C,[6],118 % of control
same,T/C,"dose: 16.5 mg/kg/injection, schedule: Q01DX009 (ip), vehicle: saline with Tween-80",150 % of control
same,T/C,"dose: 37.5 mg/kg/injection, schedule: Q01DX009 (ip), vehicle: saline with Tween-80",120 % of control
CC1(C(N)=O)OCCO1,T/C,[2],100 % of control
same,T/C,[3],95 % of control
same,T/C,[4],95 % of control
c1cc(Nc2ccncc2)ccn1,T/C,[6],96 % of control
same,T/C,"dose: 6.25 mg/kg/injection, schedule: Q04DX003 (ip), vehicle: saline",115 % of control
same,T/C,"dose: 12.5 mg/kg/injection, schedule: Q01DX009 (ip), vehicle: saline with Tween-80",104 % of control
same,T/C,"dose: 12.5 mg/kg/injection, schedule: Q04DX003 (ip), vehicle: saline",92 % of control
same,T/C,[5],108 % of control
same,T/C,"dose: 25.0 mg/kg/injection, schedule: Q04DX003 (ip), vehicle: saline",107 % of control
